Data as given in patent publication US6071738A, “Conversion of organosulfur compounds to oxyorganosulfur compounds for desulfurization of fossil fuels” (Energy BioSystems Corporation, priority 1997, dated 2000).
In brackets after ≈: the same amount, converted by molar mass. Where two headings read alike, the source gives them in different places. Values belong to the molecule of their own block, whether it stands above or below them.

Key:
[1] = Precipitation of 2-(2-hydroxyphenyl)benzenesulfinic acid from acidified HPBS solution; supernatant concentration by HPLC and redissolution; format: physicochemical
Method: The pH of a concentrated (>50 mM) HPBS solution was adjusted to 1.2 at ambient temperature with concentrated sulfuric acid. An amorphous white precipitate formed rapidly and the supernatant HPBS concentration, as determined by HPLC, dropped to the range of 5-8 μM.

[2] = Titration of HPBS with hydrochloric acid or sulfuric acid (acid requirements, pKa, precipitation); format: physicochemical
Method: Acid requirements for the precipitation of 2-(2-hydroxyphenyl)benzenesulfinic acid were determined via titration with hydrochloric acid or sulfuric acid for solutions prepared from synthetic HPBS or HPBS derived from the biocatalytic oxidation of DBT. The titrations were conducted using standard methods.
FIG. 2 presents titration curves from 3 experiments. In experiment 1, a 110 mM solution of HPBS at pH 13 was treated with aqueous HCl. The HPBS phenolic group was titrated first, with a pKa of about 10.5. Precipitation of solid 2-(2-hydroxyphenyl)benzenesulfinic acid began at about pH 2, as the sulfinate group was protonated.
In experiment 2, a 110 mM HPBS solution equilibrated with a middle distillate (or diesel fuel) at 30° C. and pH 6.6 was titrated with HCl. The middle distillate was added to determine if the presence of middle distillate components have any effect on the protonation of HPBS.
In experiment 3, a 75 mM solution of HPBS prepared via the biocatalytic oxidation of DBT was titrated with sulfuric acid.

[3] = comparison value for benzenesulfinic acid; cited from earlier work
[4] = Solubility of 2-(2-hydroxyphenyl)benzenesulfinic acid and DBTSi in liquid hydrocarbons; format: physicochemical
Text: Solubility of 2-(2-hydroxyphenyl)benzenesulfinic acid and DBTSi in liquid hydrocarbons
The solubilities of 2-(2-hydroxyphenyl)benzenesulfinic acid and DBTSi in liquid hydrocarbons such as gas-oil or vacuum-gas-oil in an important parameter in process design as such refinery streams represent ultimate disposal sites for HPBS.

SMILES: O=S(O)c1ccccc1-c1ccccc1O [HPBS, 2-(2'-hydroxyphenyl)benzenesulfinate]
solubility ([1]; water, pH 1.2, ambient temperature, concentrated (>50 mM) HPBS, sulfuric acid, HPLC, read-out: supernatant HPBS concentration after precipitation): 5 to 8 µM (≈ 1.17 to 1.87 µg/mL) | pKa ([2]; 110 mM HPBS at pH 13 titrated with aqueous HCl, read-out: pKa of phenolic group): ~10.5

SMILES: O=S(O)c1ccccc1 [benzenesulfinic acid]
pKa [3]: 1.2

SMILES: O=S(O)c1ccccc1-c1ccccc1O [2-(2-hydroxyphenyl)benzenesulfinic acid]
solubility of precipitate in organic solvents, such as toluene ([1]; organic solvents, such as toluene): only sparingly soluble | dissolution of precipitate in water ([1]; water at neutral pH): dissolved rapidly | solubility in TMD ([4]; ambient temperature, TMD, x-ray fluorescence detection): below the limits of detection | solubility in hexadecane ([4]; ambient temperature, hexadecane, x-ray fluorescence detection): below the limits of detection | solubility in toluene ([4]; ambient temperature, toluene, x-ray fluorescence detection): below the limits of detection | solubility in gas-oil ([4]; gas-oil, 50° C.): no detectable solubility | solubility in middle distillate ([4]; middle distillate, 50° C.): no detectable solubility | pH at which precipitation of solid began ([2]; 110 mM HPBS titrated with aqueous HCl): ~2

solubility in gas-oil [4]: ca. 1.4% | solubility in hexadecane [4]: 0.33 % by weight | solubility in middle distillate [4]: ca. 1% | solubility in vacuum gas oil [4]: 4.3% | temperature dependence of solubility in the hydrocarbon [4]: increased with increasing temperature
SMILES: O=S1Oc2ccccc2-c2ccccc21 (centres unmarked) [DBTSi, dibenzothiophene sultine]
solubility in liquid hydrocarbons, in words [4]: substantially more soluble in liquid hydrocarbons
